Test results as given in patent publication US11576897B2, “Therapeutic agent for non-motor symptoms associated with Parkinson's disease” (priority 2017, dated 2023).
Like-named read-outs stand apart in the source and are kept apart here.

Experiments:
[1] = molecular target: human serotonin transporter (SERT) (Homo sapiens (Human), UniProt P31645); experiment: Human serotonin transporter (SERT) binding test; conditions: [3H]-citalopram, h-SERT/CHO cell membrane; read-out: h-SERT binding inhibition constant Ki
[2] = molecular target: human 5-HT2A receptor (Homo sapiens (Human), UniProt P28223); experiment: biochemical; assay type: binding; conditions: read-out: 5-HT2A receptor binding inhibition constant Ki
[3] = [3H]-ketanserin, human 5-HT2A receptor-expressed CHO cell membrane

SMILES | Ki [1] [nM] | Ki [2, 3] [nM] | Ki [2] [nM]
CNCc1cc(OCc2cccc(C)c2)n(C(C)C2CCCCC2)n1 (stereo not shown) [Example 299, 1-{1-(1-cyclohexylethyl)-5-[(3-methylbenzyl)oxy]-1H-pyrazol-3-yl}-N-methylmethanamine] | 1.4 | 5.6 | 
CNCc1cc(OCc2cc(F)ccc2F)n(CC2CCC(F)(F)CC2)n1 [Example 124, 1-{5-[(2,5-difluorobenzyl)oxy]-1-[(4,4-difluorocyclohexyl)methyl]-1H-pyrazol-3-yl}-N-methylmethanamine] | 0.71 | 1.7 | 
CNCc1cc(OCc2ccccc2)n(CC2CC3CCC2C3)n1 (stereo not shown) [Example 115, 1-[5-(benzyloxy)-1-(bicyclo[2.2.1]hept-2-ylmethyl)-1H-pyrazol-3-yl]-N-methylmethanamine] |  | 1 | 
CNCc1cc(OCc2ccccc2C#N)n(CC2CCCC2)n1 [Example 162, 2-[({1-(cyclopentylmethyl)-3-[(methylamino)methyl]-1H-pyrazol-5-yl}oxy)methyl]benzonitrile] | 7.8 |  | 2.7
CNCc1cc(OCc2ccc(F)cc2C)n(CC2CCCCO2)n1 (stereo not shown) [Example 108, 1-{5-[(4-fluoro-2-methylbenzyl)oxy]-1-(tetrahydro-2H-pyran-2-ylmethyl)-1H-pyrazolo-3-yl}-N-methylmethanamine] | 1.9 | 4.8 | 
CNCc1cc(OCc2cc(F)c(F)cc2F)n(CCC(C)(C)C)n1 [Example 284, 1-{1-(3,3-dimethylbutyl)-5-[(2,4,5-trifluorobenzyl)oxy]-1H-pyrazol-3-yl}-N-methylmethanamine] |  | 1.8 | 
CNCc1cc(OCc2ccccc2)n(C(C)C2CCCCC2)n1 (stereo not shown) [Example 292, 1-[5-(benzyloxy)-1-(1-cyclohexylethyl)-1H-pyrazol-3-yl]-N-methylmethanamine] | 0.96 | 1.2 | 
CNCc1cc(OCc2cc(F)ccc2Cl)n(CC2CCCCC2)n1 [Example 37, 1-{5-[(2-chloro-5-fluorobenzyl)oxy]-1-(cyclohexylmethyl)-1H-pyrazol-3-yl}-N-methylmethanamine] | 0.89 |  | 2.1
CNCc1cc(OCc2cc(Cl)ccc2F)n(CC(C)C)n1 [Example 256, 1-{5-[(5-chloro-2-fluorobenzyl)oxy]-1-(2-methylpropyl)-1H-pyrazol-3-yl}-N-methylmethanamine] |  | 4.5 | 
Cl.[2H]C([2H])(Oc1cc(CNC)nn1CC1CCCCC1)c1cc(F)ccc1F [Example 497, 1-[1-(Cyclohexylmethyl)-5-{[(2,5-difluorophenyl) (^2H2)methyl]oxy}-1H-pyrazol-3-yl]-N-methylmethanamine Hydrochloride] |  | 2.4 | 
CNCc1cc(OCc2cc(F)ccc2F)n(CC2(F)CCCCC2)n1 [Example 127, 1-{5-[(2,5-difluorobenzyl)oxy]-1-[(1-fluorocyclohexyl)methyl]-1H-pyrazol-3-yl}-N-methylmethanamine] | 1.3 |  | 
CNCc1cc(OCc2ccccc2Cl)n(CC2CCCC2)n1 [Example 138, 1-{5-[(2-chlorobenzyl)oxy]-1-(cyclopentylmethyl)-1H-pyrazol-3-yl}-N-methylmethanamine] | 1.8 | 11 | 
CNCc1cc(OCc2cc(F)ccc2F)n(CC2CCCCC2)n1 [Example 33, 1-{1-(cyclohexylmethyl)-5-[(2,5-difluorobenzyl)oxy]-1H-pyrazol-3-yl}-N-methylmethanamine] |  | 0.5 | 
CNCc1cc(OCc2cc(F)ccc2F)n(C(C)C2CCCCC2)n1 (stereo not shown) [Example 303, 1-{1-(1-cyclohexylethyl)-5-[(2,5-difluorobenzyl)oxy]-1H-pyrazol-3-yl}-N-methylmethanamine] | 0.46 | 1.8 | 
CNCc1cc(OCc2cccc(Cl)c2)n(CC2OC3CCC2CC3)n1 (stereo not shown) [Example 508, 1-{5-[(3-chlorobenzyl)oxy]-1-(2-oxabicyclo[2.2.2]oct-3-ylmethyl)-1H-pyrazol-3-yl}-N-methylmethanamine] | 8.1 | 9.4 | 
CNCc1cc(OCc2ccccc2F)n(C(C)C2CCCCC2)n1 (stereo not shown) [Example 293, 1-{1-(1-cyclohexylethyl)-5-[(2-fluorobenzyl)oxy]-1H-pyrazol-3-yl}-N-methylmethanamine] | 0.67 | 1.1 | 
CNCc1cc(OCc2cc(F)ccc2F)n(CCC(C)(C)C)n1 [Example 266, 1-{5-[(2,5-difluorobenzyl)oxy]-1-(3,3-dimethylbutyl)-1H-pyrazol-3-yl}-N-methylmethanamine] |  | 0.65 | 
CNCc1cc(OCc2ccc(F)cc2)n(CC2CCCC2)n1 [Example 137, 1-{1-(cyclopentylmethyl)-5-[(4-fluorobenzyl)oxy]-1H-pyrazol-3-yl}-N-methylmethanamine] |  | 1.3 | 
CNCc1cc(OCc2ccc(F)cc2F)n(C(C)C2CCCCC2)n1 (stereo not shown) [Example 300, 1-{1-(1-cyclohexylethyl)-5-[(2,4-difluorobenzyl)oxy]-1H-pyrazol-3-yl}-N-methylmethanamine] | 1.8 | 0.57 | 
CNCc1cc(OCc2ccccc2)n(C(C)C2CCCC2)n1 (stereo not shown) [Example 288, 1-[5-(benzyloxy)-1-(1-cyclopentylethyl)-1H-pyrazol-3-yl]-N-methylmethanamine] |  |  | 5.2

SMILES | Ki [1] [nM] | Ki [2, 3] [nM] | Ki [2] [nM]
CNCc1cc(OCc2cc(C)ccc2F)n(C(C)C2CCCCC2)n1 (stereo not shown) [Example 305, 1-{1-(1-cyclohexylethyl)-5-[(2-fluoro-5-methylbenzyl)oxy]-1H-pyrazol-3-yl}-N-methylmethanamine] | 2 |  | 2.5
CNCc1cc(OCc2cc(F)ccc2F)n(Cc2ccc(Cl)cc2)n1 [Example 224, 1-{1-(4-chlorobenzyl)-5-[(2,5-difluorobenzyl)oxy]-1H-pyrazol-3-yl}-N-methylmethanamine] | 1.5 | 1.2 | 
CNCc1cc(OCc2cc(F)c(F)cc2F)n(Cc2ccc(C)cc2)n1 [Example 286, N-methyl-1-{1-(4-methylbenzyl)-5-[(2,4,5-trifluorobenzyl)oxy]-1H-pyrazol-3-yl}methanamine] |  | 2.4 | 
CNCc1cc(OCc2cc(Cl)ccc2F)n(C(C)C2CCCCC2)n1 (stereo not shown) [Example 304, 1-{5-[(5-chloro-2-fluorobenzyl)oxy]-1-(1-cyclohexylethyl)-1H-pyrazol-3-yl}-N-methylmethanamine] | 1.3 |  | 1.4
CNCc1cc(OC(F)(F)c2ccccc2)n(CC2CCCCC2)n1 [Example 349, 1-{1-(cyclohexylmethyl)-5-[difluoro(phenyl)methoxy]-1H-pyrazol-3-yl}-N-methylmethanamine] |  |  | 6
CNCc1cc(OCc2cc(Cl)ccc2F)n(CC2CCCC2)n1 [Example 148, 1-{5-[(5-chloro-2-fluorobenzyl)oxy]-1-(cyclopentylmethyl)-1H-pyrazol-3-yl}-N-methylmethanamine] |  |  | 1.8
CNCc1cc(OCc2cc(Cl)ccc2F)n(C(C)C2CCCC2)n1 (stereo not shown) [Example 291, 1-{5-[(5-chloro-2-fluorobenzyl)oxy]-1-(1-cyclopentylethyl)-1H-pyrazol-3-yl}-N-methylmethanamine] | 1.2 | 2.5 | 
CNCc1cc(OCc2ccccc2F)n(Cc2ccc(F)cc2)n1 [Example 218, 1-{1-(4-fluorobenzyl)-5-[(2-fluorobenzyl)oxy]-1H-pyrazol-3-yl}-N-methylmethanamine] |  |  | 1.2
CNCc1cc(OCc2cc(F)c(F)cc2F)n(CC2CCCC2)n1 [Example 280, 1-{1-(cyclopentylmethyl)-5-[(2,4,5-trifluorobenzyl)oxy]-1H-pyrazol-3-yl}-N-methylmethanamine] |  | 1.3 | 
CNCc1cc(OCc2ccccc2)n(Cc2ccccc2)n1 [Example 1, 1-[l-benzyl-5-(benzyloxy)-1H-pyrazol-3-yl]-N-methylmethanamine] |  | 5.5 | 
Fc1ccc(F)c(COc2cc(CNC3CC3)nn2CC2CCCCC2)c1 [Example 342, N-({1-(cyclohexylmethyl)-5-[(2,5-difluorobenzyl)oxy]-1H-pyrazol-3-yl}methyl)cyclopropanamine] |  | 4.9 | 
CNC(C)c1cc(OCc2cc(F)ccc2F)n(CCC2CCCC2)n1 (stereo not shown) [Example 315, 1-{1-(2-cyclopentylethyl)-5-[(2,5-difluorobenzyl)oxy]-1H-pyrazol-3-yl}-N-methylethanamine] |  | 0.6 | 
CNCc1cc(OCc2cccc(Cl)c2)n(CC2CCc3ccccc3O2)n1 (stereo not shown) [Example 341, 1-{5-[(3-chlorobenzyl)oxy]-1-(3,4-dihydro-2H-chromen-2-ylmethyl)-1H-pyrazol-3-yl}-N-methylmethanamine] |  |  | 4.9
CNCc1cc(OCc2cc(Cl)ccc2F)n(CC(C)(C)C)n1 [Example 259, 1-{5-[(5-chloro-2-fluorobenzyl)oxy]-1-(2,2-dimethylpropyl)-1H-pyrazol-3-yl}-N-methylmethanamine] |  | 7.5 | 
CNCc1cc(OCc2ccc(F)cc2F)n(CC2CCCC2)n1 [Example 144, 1-{1-(cyclopentylmethyl)-5-[(2,4-difluorobenzyl)oxy]-1H-pyrazol-3-yl}-N-methylmethanamine] |  |  | 0.2
CNCc1cc(OCc2cc(F)ccc2F)n(Cc2ccc(F)cc2)n1 [Example 219, 1-{5-[(2,5-difluorobenzyl)oxy]-1-(4-fluorobenzyl)-1H-pyrazol-3-yl}-N-methylmethanamine] |  | 1.3 | 
CNCc1cc(OCc2cc(F)ccc2F)n(Cc2ccc(C)cc2)n1 [Example 230, 1-{5-[(2,5-difluorobenzyl)oxy]-1-(4-methylbenzyl)-1H-pyrazol-3-yl}-N-methylmethanamine] |  | 2.7 | 
CNCc1cc(OCc2ccc(F)cc2C)n(CC2CCCCC2)n1 [Example 31, 1-{1-(cyclohexylmethyl)-5-[(4-fluoro-2-methylbenzyl)oxy]-1H-pyrazol-3-yl}-N-methylmethanamine] |  |  | 1.4
CNCc1cc(OCc2ccccc2)n(C(CF)C2CCCCC2)n1 (stereo not shown) [Example 330, 1-[5-(benzyloxy)-1-(1-cyclohexyl-2-fluoroethyl)-1H-pyrazol-3-yl]-N-methylmethanamine] |  |  | 2.8
CNCc1cc(OCc2ccccc2)n(CC2CCCCC2)n1 [Example 5, 1-[5-(benzyloxy)-1-(cyclohexylmethyl)-1H-pyrazol-3-yl]-N-methylmethanamine] |  |  | 5.9
